The values below are quoted from earlier work in US6642211B2 (Wisconsin Alumni Research Foundation, priority 2001, dated 2003).

In series [1] the test system is recurrent malignant glioma.
Series [2] has as its system human tumor xenografts, including malignant glioma. To be noted: wide variety of human tumor xenografts. (In general: Xenograft models place foreign cells or tissue in a host animal.)
Series [3] concerns high grade gliomas and malignant melanoma.
Setting [4] is: prolonged infusions of up to 30 days, patients with leukemia.

Consider `Cc1cn([C@H]2C[C@H](O)[C@@H](CO)O2)c(=O)[nH]c1=O` [Thymidine], for which, in the series with leukemia (setting [4]), the anti-cancer activity result is reported as “anti-cancer activity” and the myelotoxicity entry is “significant myelotoxicity”. In the series with leukemia (shorter infusions of high dose thymidine), the efficacy entry is recorded as “effective”. Besides, the “protection against carboplatin myelotoxicity” value in series [1] (Phase I) was “protect against dose-limiting carboplatin myelotoxicity”. Also, in series [1] (thymidine-carboplatin interaction), the “effect on pharmacokinetics or protein binding of carboplatin” value is “not to affect”. Moreover, in series [2], the tumor regression result is “induces partial regression”. Besides, the “cell killing in vitro” value in the series on neoplastic cells is recorded as “preferentially kills neoplastic cells”.

Regarding `Cn1nnc2c(C(N)=O)ncn2c1=O` [Temozolamide], in series [3] (human, in vivo), the dose-limiting toxicity result is on record as “related to myelosuppression”. Besides, in series [3] (treatment of high grade gliomas and malignant melanoma), the clinical efficacy result is on record as “demonstrated clinical efficacy”.
